{"source": "patent US8663669B2", "about": "“Pesticide treatment of soils or substrates with sulphur compounds” (Arkema France, priority 2002, dated 2014)", "key": {"Rhizoctonia solani": {"tested_on": "Rhizoctonia solani", "experiment": "Fungicidal efficacy by gassing, colonized barley grains", "type": "cell-based", "set-up": "Vitality score Nm (over 11 days): scale not given here; Reduction in viability RV / Reduction in vitality score RNm: unit not given here", "conditions": "for Reduction in viability RV / Reduction in vitality score RNm: compared with the control", "protocol": "These four organisms are the following:\nRhizoctonia solani: a very important group of polyphagous pathogens in the genus Rhizoctonia and which attack very many market garden crops including sweet pepper and lettuce.\n• Sclerotinia sclerotiorum: sclerotia • Sclerotium rolfsii: sclerotia • Rhizoctonia solani: colonized barley grains (mycelium and sclerotia) • Phytophthora cactorum: colonized millet grains (mycelium, sporangia and oospores) Preparation of the Fungi (24 h Before the Gassing Operation) 1. Preparation of the sclerotia of Sclerotinia sclerotiorum and of Sclerotium rolfsii: The fungi are cultured on malt agar medium until the sclerotia are obtained. The sclerotia are collected in a sterile manner and stored dry in empty Petri dishes until they are used. The sclerotia used for the trial are over 3 months old and are perfectly dormant. 2. Preparation of Phytophthora cactorum and of Rhizoctonia solani: The millet and barley used for the multiplication of the two fungi are moistened with ultrapure water by immersing for 24 hours. The grains are then slightly drained and then distributed into flasks and autoclaved (3 autoclavings at 110° C. for 20 minutes, 3 times at 24 hour intervals). Fragments of fungal culture are introduced into the flasks which are then incubated at 22° C.±2° C. (white light 18 h) until homogeneous colonization is obtained. The grains are then removed from the flasks in a sterile manner, dried in the sterile stream of a safety cabinet and then stored in the dry state until they are used. Conditions for Gassing and for Desorption\nAll the batches of fungi to be treated are placed for a few hours at the trial temperature (20° C.). Between 35 and 300 units of fungi or “propagules” (grains or sclerotia) are subjected to gassing during each trial.\nEach fumigation chamber comprising to one or more species of fungi corresponds to a glass round-bottomed flask which is impervious to the gas and has a volume of 11 litres. Each round-bottomed flask is equipped with branch connections, one at the bottom for introducing the liquid DMDS, one at the top for collecting the air sample with a syringe.\nBefore introducing the gas, a partial vacuum (−500 mbar) is established in the round-bottomed flask with a vacuum pump. This makes it possible, on the one hand, to avoid the phenomenon of excess pressure due to the expansibility of DMDS in the round-bottomed flask and, on the other hand, to promote better homogeneity of the air-gas mixture in the first few seconds which follow injection. The DMDS (weighed accurately to the mg) is injected with a syringe, in liquid form, through the bottom branch connection, that is to say under the screen placed at half height of the round-bottomed flask and supporting the batches of fungi. After introducing the product, the internal pressure of the round-bottomed flask is re-established at atmospheric pressure. A magnetic stirrer operates during the entire duration of the treatment in order to properly homogenize the air-gas mixture.\nAt the end of the gassing, the cover for the round-bottomed flask is removed. One minute after this operation, the batches of fungi gassed are taken out and left in the open air for 15 minutes for desorption of the DMDS. They are then transferred into a Petri dish, the latter remaining open for 5 minutes to allow perfect desorption of the gas. […]"}, "[1]": {"tested_on": "termite (Reticulitermes santonensis)", "experiment": "Insecticidal in vitro fumigation test on termites", "type": "in vivo", "conditions": "24 hours of fumigation, mortality counted at the end of 48 hours; 25° C.", "protocol": "Dead wood infested with termites was collected from the soil on ground occupied by a colony. This dead wood serves as breeding medium. The breeding is maintained at a constant 25° C. and a day/night 12:12 alternation.\nThe insects are removed in an amount of 2 soldiers per 28 workers.\nThe tests are carried out in hermetically closed glass jars having a volume of 3 L and containing the insects.\nThe product to be tested is introduced through a hole 2 mm in diameter with the aid of a micropipette and deposited on a filter paper (2×5 cm: Whatman No. 1) suspended at the centre of the jar where it migrates by capillarity and vaporizes rapidly. The hole is hermetically closed again as quickly as possible.\nThe jars are placed for 24 hours in an incubator under the same breeding conditions.\nAt the end of 24 hours, after a few instants of aeration, a first count is made and then the insects are placed again under breeding conditions for another 24 hours. The counting of the mortality is therefore carried out at the end of 48 hours. […] Each test is carried out on a population of 30 to 50 insects and is accompanied by a control without treatment. Several repeats are carried out with doses close to the LC50."}, "[2]": {"conditions": "CT 1 050 g·h/m^3 (C 15.91 g/m^3, T 66 h)"}, "[3]": {"conditions": "CT 1 402 g·h/m^3 (C 21.24 g/m^3, T 66 h)"}, "[4]": {"conditions": "CT 1 450 g·h/m^3 (C 30.96 g/m^3, T 48 h)"}, "[5]": {"conditions": "CT 1 899 g·h/m^3 (C 28.77 g/m^3, T 66 h)"}, "[6]": {"conditions": "CT 1 981 g·h/m^3 (C 30.02 g/m^3, T 66 h)"}, "[7]": {"conditions": "CT 2 460 g·h/m^3 (C 51.25 g/m^3, T 48 h)"}, "[8]": {"conditions": "CT 2 471 g·h/m^3 (C 37.44 g/m^3, T 66 h)"}, "[9]": {"conditions": "CT 2 837 g·h/m^3 (C 42.98 g/m^3, T 66 h)"}, "[10]": {"conditions": "CT 2 974 g·h/m^3 (C 45.06 g/m^3, T 66 h)"}, "[11]": {"conditions": "CT 3 169 g·h/m^3 (C 48.02 g/m^3, T 66 h)"}, "[12]": {"conditions": "CT 3 467 g·h/m^3 (C 52.53 g/m^3, T 66 h)"}, "[13]": {"conditions": "CT 419 g·h/m^3 (C 17.46 g/m^3, T 24 h)"}, "[14]": {"conditions": "CT 625 g·h/m^3 (C 26.04 g/m^3, T 24 h)"}, "[15]": {"conditions": "CT 703 g·h/m^3 (C 29.29 g/m^3, T 24 h)"}, "[16]": {"conditions": "CT 907 g·h/m^3 (C 37.79 g/m^3, T 24 h)"}}, "data": [{"smiles": "CSSC", "note": "[DMDS, dimethyl disulphide]", "values": [{"measurement": "Viability V", "setting": "Rhizoctonia solani; [2]", "result": 89.2, "unit": "%"}, {"measurement": "Vitality score Nm (over 11 days)", "setting": "Rhizoctonia solani; [2]", "result": 7.0}, {"measurement": "Reduction in viability RV", "setting": "Rhizoctonia solani; [2]", "result": 10.8}, {"measurement": "Reduction in vitality score RNm", "setting": "Rhizoctonia solani; [2]", "result": 22.2}, {"measurement": "Viability V", "setting": "Rhizoctonia solani; [3]", "result": 96.9, "unit": "%"}, {"measurement": "Vitality score Nm (over 11 days)", "setting": "Rhizoctonia solani; [3]", "result": 7.6}, {"measurement": "Reduction in viability RV", "setting": "Rhizoctonia solani; [3]", "result": 3.1}, {"measurement": "Reduction in vitality score RNm", "setting": "Rhizoctonia solani; [3]", "result": 15.0}, {"measurement": "Viability V", "setting": "Rhizoctonia solani; [4]", "result": 98.5, "unit": "%"}, {"measurement": "Vitality score Nm (over 11 days)", "setting": "Rhizoctonia solani; [4]", "result": 4.4}, {"measurement": "Reduction in viability RV", "setting": "Rhizoctonia solani; [4]", "result": 1.5}, {"measurement": "Reduction in vitality score RNm", "setting": "Rhizoctonia solani; [4]", "result": 51.3}, {"measurement": "Viability V", "setting": "Rhizoctonia solani; [5]", "result": 84.3, "unit": "%"}, {"measurement": "Vitality score Nm (over 11 days)", "setting": "Rhizoctonia solani; [5]", "result": 6.0}, {"measurement": "Reduction in viability RV", "setting": "Rhizoctonia solani; [5]", "result": 15.7}, {"measurement": "Reduction in vitality score RNm", "setting": "Rhizoctonia solani; [5]", "result": 33.2}, {"measurement": "Viability V", "setting": "Rhizoctonia solani; [6]", "result": 94.7, "unit": "%"}, {"measurement": "Vitality score Nm (over 11 days)", "setting": "Rhizoctonia solani; [6]", "result": 7.4}, {"measurement": "Reduction in viability RV", "setting": "Rhizoctonia solani; [6]", "result": 5.3}, {"measurement": "Reduction in vitality score RNm", "setting": "Rhizoctonia solani; [6]", "result": 17.2}, {"measurement": "Viability V", "setting": "Rhizoctonia solani; [7]", "result": 11.0, "unit": "%"}, {"measurement": "Vitality score Nm (over 11 days)", "setting": "Rhizoctonia solani; [7]", "result": 0.3}, {"measurement": "Reduction in viability RV", "setting": "Rhizoctonia solani; [7]", "result": 89.0}, {"measurement": "Reduction in vitality score RNm", "setting": "Rhizoctonia solani; [7]", "result": 96.2}, {"measurement": "Viability V", "setting": "Rhizoctonia solani; [8]", "result": 24.1, "unit": "%"}, {"measurement": "Vitality score Nm (over 11 days)", "setting": "Rhizoctonia solani; [8]", "result": 0.6}, {"measurement": "Reduction in viability RV", "setting": "Rhizoctonia solani; [8]", "result": 75.9}, {"measurement": "Reduction in vitality score RNm", "setting": "Rhizoctonia solani; [8]", "result": 92.0}, {"measurement": "Viability V", "setting": "Rhizoctonia solani; [9]", "result": 2.2, "unit": "%"}, {"measurement": "Vitality score Nm (over 11 days)", "setting": "Rhizoctonia solani; [9]", "result": 0.1}, {"measurement": "Reduction in viability RV", "setting": "Rhizoctonia solani; [9]", "result": 97.8}, {"measurement": "Reduction in vitality score RNm", "setting": "Rhizoctonia solani; [9]", "result": 98.4}, {"measurement": "Viability V", "setting": "Rhizoctonia solani; [10]", "result": 9.4, "unit": "%"}, {"measurement": "Vitality score Nm (over 11 days)", "setting": "Rhizoctonia solani; [10]", "result": 0.1}, {"measurement": "Reduction in viability RV", "setting": "Rhizoctonia solani; [10]", "result": 90.6}, {"measurement": "Reduction in vitality score RNm", "setting": "Rhizoctonia solani; [10]", "result": 98.4}, {"measurement": "Viability V", "setting": "Rhizoctonia solani; [11]", "result": 1.2, "unit": "%"}, {"measurement": "Vitality score Nm (over 11 days)", "setting": "Rhizoctonia solani; [11]", "result": 0.05}, {"measurement": "Reduction in viability RV", "setting": "Rhizoctonia solani; [11]", "result": 98.8}, {"measurement": "Reduction in vitality score RNm", "setting": "Rhizoctonia solani; [11]", "result": 99.3}, {"measurement": "Viability V", "setting": "Rhizoctonia solani; [12]", "result": 0, "unit": "%"}, {"measurement": "Vitality score Nm (over 11 days)", "setting": "Rhizoctonia solani; [12]", "result": 0}, {"measurement": "Reduction in viability RV", "setting": "Rhizoctonia solani; [12]", "result": 100}, {"measurement": "Reduction in vitality score RNm", "setting": "Rhizoctonia solani; [12]", "result": 100}, {"measurement": "Viability V", "setting": "Rhizoctonia solani; [13]", "result": 100, "unit": "%"}, {"measurement": "Vitality score Nm (over 11 days)", "setting": "Rhizoctonia solani; [13]", "result": 9.0}, {"measurement": "Reduction in viability RV", "setting": "Rhizoctonia solani; [13]", "result": 0}, {"measurement": "Reduction in vitality score RNm", "setting": "Rhizoctonia solani; [13]", "result": 0}, {"measurement": "Viability V", "setting": "Rhizoctonia solani; [14]", "result": 100, "unit": "%"}, {"measurement": "Vitality score Nm (over 11 days)", "setting": "Rhizoctonia solani; [14]", "result": 8.7}, {"measurement": "Reduction in viability RV", "setting": "Rhizoctonia solani; [14]", "result": 0}, {"measurement": "Reduction in vitality score RNm", "setting": "Rhizoctonia solani; [14]", "result": 3.1}, {"measurement": "Viability V", "setting": "Rhizoctonia solani; [15]", "result": 100, "unit": "%"}, {"measurement": "Vitality score Nm (over 11 days)", "setting": "Rhizoctonia solani; [15]", "result": 8.3}, {"measurement": "Reduction in viability RV", "setting": "Rhizoctonia solani; [15]", "result": 0}, {"measurement": "Reduction in vitality score RNm", "setting": "Rhizoctonia solani; [15]", "result": 7.3}, {"measurement": "Viability V", "setting": "Rhizoctonia solani; [16]", "result": 100, "unit": "%"}, {"measurement": "Vitality score Nm (over 11 days)", "setting": "Rhizoctonia solani; [16]", "result": 7.1}, {"measurement": "Reduction in viability RV", "setting": "Rhizoctonia solani; [16]", "result": 0}, {"measurement": "Reduction in vitality score RNm", "setting": "Rhizoctonia solani; [16]", "result": 21.6}, {"measurement": "LC50 (Probits method)", "setting": "[1]", "result": 0.095, "unit": "g × 24 h/m^3"}]}]}
